From patent US20160044922A1, “Control of Ectoparasites” (priority 2014, published 2016)

Experiments:
beneficial mite species = conditions: under normal use; cited from earlier work
[1] = system: predatory mites and many beneficial insects; conditions: under field conditions; cited from earlier work
cotton aphids = conditions: cited from earlier work
[2] = rat versus trout liver microsomes; cited from earlier work
[3] = system: Larval-stage lone star ticks (Amblyomma americanum); test: Dip survival assay, A. americanum larvae; assay type: in vivo; conditions: larvae submerged 30 minutes, counted after 24 hours at 25° with 95% humidity
Description: Activity Against A. Americanum Larvae in a Dip Survival Assay
Compound 1 from a dimethyl sulfoxide (DMSO) stock or 2% DMSO alone is dispensed into a round-bottom 96-well plate and mixed with aqueous buffer containing 1% ethanol, 0.2% Triton X100. […] Larval-stage lone star ticks (Amblyomma americanum) are dispensed into the wells containing the Compound and submerged for 30 minutes. The ticks are subsequently dispensed into a tissue biopsy bag, which is allowed to dry for 1 hour. After drying, the bags are incubated at 25° with 95% humidity for 24 hours and the number of live or dead larvae are enumerated. The observations made illustrated in the following table.

fish, mammals = conditions: fish versus mammals; cited from earlier work
fleas = test: Activity on fleas; conditions: in vivo
tobacco budworm = conditions: cited from earlier work
tobacco bud worm = conditions: cited from earlier work
ticks = test: Activity on ticks; conditions: in vivo
mosquito larvae = conditions: cited from earlier work
cabbage looper = conditions: cited from earlier work
southern corn rootworm = conditions: cited from earlier work

| Structure (SMILES) | toxicity to beneficial mite species (beneficial mite species) | impact on predatory mites and many beneficial insects [1] | LC50 (cotton aphids) | degradation by liver microsomes [2] | Number of live/dead A. americanum larvae 24 hours after treatment ([3]; 0.01% compound) | Number of live/dead A. americanum larvae 24 hours after treatment ([3]; 0.05% compound) | toxicity (fish, mammals) | activity on fleas (fleas) | activity (tobacco budworm) | metabolism by the tobacco bud worm (tobacco bud worm) | activity on ticks (ticks) | LC50 (mosquito larvae) | LC50 (cabbage looper) | activity (southern corn rootworm) |
| --- | --- | --- | --- | --- | --- | --- | --- | --- | --- | --- | --- | --- | --- | --- |
| CCc1nn(C)c(C(=O)NCc2ccc(C(C)(C)C)cc2)c1Cl [Formula II, 4-chloro-5-ethyl-2-methyl-N-[(4-tert-butylphenyl)methyl]pyrazole-3-carboxamide] | relatively low toxicity | minimal impact |  |  |  |  |  |  |  |  |  |  |  |  |
| CC(C)(C)c1ccc(CCOc2ncnc3ccccc23)cc1 [Formula I, 4-tert-butylphenethyl quinazolin-4-yl ether] | relatively low toxicity | minimal impact | 2.6 ppm | degraded more extensively by rat liver microsomes than by trout liver microsomes | 0/52 | 0/48 | higher toxicity of the compound to fish than to mammals | active | greater than 400 ppm | extensively metabolized | active | 0725 ppm | 188 ppm | greater than 400 ppm |
| CC(C)(C)c1ccc(CSc2cnn(C(C)(C)C)c(=O)c2Cl)cc1 [pyridaben, 4-chloro-2-tert-butyl-5-[(4-tert-butylphenyl)methylsulfanyl]pyridazin-3-one] |  | minimal impact |  |  |  |  |  |  |  |  |  |  |  |  |
